According to publication PMC3664642, “A Peptide against Soluble Guanylyl Cyclase α1: A New Approach to Treating Prostate Cancer” (PLoS ONE, 2013):
“Also recorded” adds a separate entry of the source. Where no end group is shown, it is not given here.

What was measured:
Assay type in all cases: cell-based
[1] = system: CWR-22Rv1 cells; experiment: Proliferation/cytotoxicity, castration-resistant CWR-22Rv1 cells (MTT); details: different concentrations; Fig. 3C; averages of three independent experiments; P<0.03 vs Vehicle
Protocol: (§1) LNCaP, C81, PC-3 and Cos cells were grown as previously described. CWR-22Rv1 cells were cultured in RMPI-1640 medium with 10% FBS and 50 µg/ml Gentamicin (Gibco). Control siRNA, sGCα1 siRNA and AKT siRNA (Dharmacon) at 50 nM final concentration was transfected into cells using Lipofectamine siMAX (Invitrogen).
(§2) For proliferation, cells were grown in medium containing 2% FBS extracted with dextran-coated charcoal (DCC). 48 hours later, ethanol or 1 nM R1881 was added to the cells followed by peptide treatment. The MTT assay (Sigma) was used as before to determine cell number. For apoptosis, 5000 cells were seeded in 96-well plates and treated with Vehicle (DMSO), Peptide A-8R (25 µM), Etoposide (50 µM) (Sigma) at different time points. The Caspase (3/7) activity was measured using Apo-ONE Homogeneous Caspase-3/7 assay kit (Promega). PARP cleavage was also used to measure apoptosis, and is described below.
(§3) Vehicle or different concentrations of Peptide A-8R or C-8R, as shown, was added to (A) hormone-dependent LNCaP cells grown in 2% serum without or with 1 nM R1881, (C) castration-resistant C81 or CWR-22Rv1 cells, or (E) sGCα1-deficient PC-3 or Cos cells. Cell number was measured after various days of incubation. Data points represent averages of three independent experiments plus standard deviations. […]

[2] = system: PC-3 cells; experiment: Proliferation/cytotoxicity, sGCα1-deficient PC-3 cells (MTT); details: different concentrations, Fig. 3E
Protocol: as §1, §2, §3

[3] = system: ROS generation in PC-3 cells; experiment: ROS generation, PC-3 cells; details: 0–30 min; Fig. S5A
Protocol: Intracellular ROS levels were evaluated using the fluorescent probe 5-(and-6)-chloromethyl-2′,7′-dichlorodihydrofluorescein diacetate (CM-H2DCFDA) (Invitrogen). After treatments with Peptide A-8R, C81 cells were loaded with 20 µM CM-H2DCFDA and incubated at 37°C for 30 min in the dark. Cells were then washed with PBS and fluorescence was measured at the excitation and emission wavelengths of 490 and 535 nm, respectively, using a multi-well fluorescence plate reader. For NAC (N-acetyl cysteine) (Sigma) rescue experiment, cells were pretreated with 1 or 5 mM NAC for 2 hours before adding Peptide A-8R.
Supplementary file pone.0064189.s005.tif: Figure S5 ROS generation is not induced by Peptide A-8R in PC-3 cells and Peptide C-8R in LNCaP cells. (A) PC-3 cells were treated with Vehicle or different concentrations of Peptide A-8R or Peptide C-8R, as shown, or (B) LNCaP cells were treated with Vehicle or different concentrations of Peptide A-8R or Peptide C-8R, or H2O2 and monitored for ROS generation after 0–30 (A) or 30 (B) min. (C) LNCaP cells were treated with Vehicle, Peptide C-8R (10 µM), Peptide A-8R (10 µM), or Etoposide (100 µM) for 0–8 hrs and subjected to a Caspase assay to measure apoptosis. Bar graphs represent averages of three independent experiments plus standard deviations. (C) All activities are relative to the first condition, and this activity was set to either 1. […]

[4] = system: DNA damage in C81 cells; experiment: Comet assay (DNA damage); details: C81, 1 hr, Fig. 4C
Protocol: C81 cells were treated with Peptide A-8R for 1 hour, following a 2-hour pretreatment with 5 mM NAC or Vehicle, and trypsinized, and mixed with Comet LM-Agarose (CometAssay, […]) and transferred to slides. Electrophoresis and Sybr-Green staining was carried out according to manufacturer’s protocol.
Figure 4 Peptide A-8R kills prostate cancer cells by mediating ROS generation. (A) C81 cells were treated with Vehicle or different µMolar concentrations of Peptide A-8R and without or with 0–5 mM NAC and monitored for ROS generation after 0–30 min as measured by fluorescence intensity (FI). Bar graphs represent averages of three independent experiments plus standard deviations. Note that asterisks on bar graphs found with NAC are compared to equivalent data without NAC. (B) C81 cells were treated with Vehicle or different concentrations of Peptide A-8R, as shown, and 0–5 mM NAC, as shown, and monitored for cell number after 0–6 days of incubation as measured by MTT assay. Data points represent averages of three independent experiments plus standard deviations. Asterisks indicate statistical significance (P<0.04). (C) C81 cells were treated with Vehicle or different concentrations of Peptide A-8R, as shown, and with or without 5 mM NAC, as shown, and monitored DNA damage after 1 hr incubation as measured by Comet assay.

[5] = system: Caspase 3/7 activity in PC-3 cells; experiment: Caspase 3/7 assay, PC-3 cells; details: 10 µM; 0–24 hrs; Fig. 5B
Protocol: as §2
Figure 5 Peptide A-8R induces apoptosis of prostate cancer cells. (A) LNCaP, (B) PC-3, or (C) Cos cells were treated with Vehicle, Peptide A-8R (10 µM), or Etoposide (20 µM) for 0–24 hrs and subjected to a Caspase assay to measure apoptosis. Bar graphs represent averages of three independent experiments plus standard deviations. All activities are relative to the first condition, and this activity was set to 1. Asterisks indicate statistical significance (P<0.005). (D) LNCaP cells were treated with Vehicle, Peptide C-8R, Peptide A-8R, or Etoposide (each drug at 50 µM) for 8 hrs and monitored for apoptosis by measuring PARP cleavage using Western blotting. Note that β-actin was used to control for protein loading.

[6] = system: p15, p21, CDK6; experiment: Expression of cell-cycle regulatory proteins (Western blot), C81 cells; details: 25 µM, Fig. S7
Protocol: Western blotting was performed as described using primary antibodies against sGCα1 (Cayman Chemical), pan-Akt (Cell Signaling Technology), phospho-AKT (S473, T308) (Cell Signaling Technology), phospho-PDK1 (Cell Signaling Technology), phospho-GSK-3β (Cell Signaling Technology), PARP (Cell Signaling Technology), and β-Actin (Abcam).
Supplementary file pone.0064189.s007.tif: Figure S7 Peptide A-8R induces expression of p15 and p21 in prostate cancer cells. C81 cells treated with 25 µM Peptide A-8R or Peptide C-8R for different times, as shown, monitored for expression of p15, p21, and CDK6 by Western blotting (antibodies from Cell Signaling Technology). Note that β-actin was used to control for protein loading. (TIF) Click here for additional data file.

Substance: Ac-TFCKAFPFHIIRRRRRRRR [Peptide A-8R]
- suppression of growth of CWR-22Rv1 cells [1]: also effective on another hormone-refractory prostate cancer cell line, CWR-22Rv1 cells
- effect on PC-3 cells [2]: little to no effect
- ROS generation, PC-3 cells [3]: do not respond; also recorded: not induced
- DNA damage (Comet) ([4]; 10 µM): induced weakly
- DNA damage (Comet) ([4]; 25 µM): much more strongly
- DNA damage (Comet) ([4]; 50 µM): does not elicit a Comet signal
- induction of apoptosis, PC-3 [5]: failed to induce apoptosis
- expression of CDK6 [6]: unchanged
- expression of p15 and p21 [6]: expression increased
